Source: patent US12364755B2, “Method for obtaining globally activated monocytes” (Transimmune AG, priority 2014, dated 2025)
No end group written: not given here.

Columns and labels:
Assay type in all cases: cell-based, human
GILZ [1] = assay: GILZ mRNA expression in CD11c+ MoDC (real-time PCR); settings: for GILZ up-regulation, fold change relative to untreated MoDC cultured alone: 24 hr after co-culture/treatment (FIG. 13B)
Experimental: The tubes emitted UVA light ranging from 320 to 400 nm. The UVA irradiance (power, W/m^2) was measured using a photodiode. […] Non-adherent cells (purity: 66.0±4.5% CD3^+) removed during plastic adherence will now be generally referred to as lymphocytes. […] RNA yield and purity were assessed using a NanoDrop ND-1000 spectrophotometer. cDNA was obtained using the High Capacity cDNA Reverse Transcription Kit (Applied Biosystems) in a 96-well thcrmocycicr (MJ Research PTC-200). TaqMan real-time PCR was used to detect transcripts of GILZ, CD80, and CD86. Primers and probes were obtained as pre-designed and validated Taqman Gene Expression Assays (Applied Biosystems). SYBR green real-time PCR (Applied Biosystems) was used to detect transcripts of IL-12, IL-10, IL-6, TNF-alpha, and TGF-β. Primers were designed to span intron junctions using Primer3Plus. Primer melting curves were obtained to confirm a single product. HPRT-1 and GAPDH were used as reference genes. Samples were run in triplicate on a 7500 Real Time PCR System (Applied Biosystems). The delta-delta C(t) method was used to calculate the fold change.

MoDC = assay: Cytokine quantification in culture supernatants after LPS stimulation; settings: for IL-10 to IL-12p70 ratio: after LPS stimulation, untreated MoDC 6.7
Experimental: (§1) Non-adherent cells (purity: 66.0±4.5% CD3^+) removed during plastic adherence will now be generally referred to as lymphocytes. Lymphocytes were treated with 8-MOP (100 ng/mL) and UVA (1 J/cm^2), washed with PBS, and co-cultured in complete media at 37° C. and 5% CO2 with either PUVA-treated or untreated-MoDC in a ratio of 5 or 10 lymphocytes to 1 MoDC. MoDC treated for 24 hr with 100 nM dexamethasone (Sigma) served as the positive control group. After 24 hr, cells were harvested and MoDC were re-purified.
(§2) Culture supernatants were analyzed in a multiplex format utilizing magnetic beads to IL-6, IL-8, IL-10, IL-12p70, TNF-a, RANTES, MCP-1, and MIP-1β (BioRad Laboratories). For siRNA experiments, supernatants were analyzed with enzyme-linked immunosorbent assay (ELISA) kits for IL-10 (R&D Systems) and IL-12p70 (Enzo Life Science). All samples and standards were run in duplicate and analyzed using the LUMINEX 200 (LUMINEX), or the BioTek EL800 (BioTek).

GILZ [2] = assay: siRNA-mediated knockdown of GILZ in MoDC; settings: siRNA experiments, ELISA
Experimental: Silencer select pre-designed and validated GILZ siRNA (Invitrogen), with off-target prediction algorithms, was used to knockdown GILZ expression. Mo-DC were transfected using Lipofectamine RNAiMAX Reagent (Invitrogen). RNAi duplex and lipofectamine reagent were incubated together for 20 min, then added to MoDC cultures and incubated for 2 hr at 37° C. and 5% CO2. Transfected MoDC were treated in an identical fashion as described for the MoDC/lymphocyte co-cultures. MoDC were also transfected with scramble siRNA.
RNA was isolated from CD11c MoDC using QIAShredder columns (QIAGEN) and the RNeasy Mini Kit (QIAGEN) with on-column Dnase I treatment (QIAGEN). RNA yield and purity were assessed using a NanoDrop ND-1000 spectrophotometer. cDNA was obtained using the High Capacity cDNA Reverse Transcription Kit (Applied Biosystems) in a 96-well thcrmocycicr (MJ Research PTC-200). TaqMan real-time PCR was used to detect transcripts of GILZ, CD80, and CD86. Primers and probes were obtained as pre-designed and validated Taqman Gene Expression Assays (Applied Biosystems). SYBR green real-time PCR (Applied Biosystems) was used to detect transcripts of IL-12, IL-10, IL-6, TNF-alpha, and TGF-β. Primers were designed to span intron junctions using Primer3Plus. Primer melting curves were obtained to confirm a single product. HPRT-1 and GAPDH were used as reference genes. Samples were run in triplicate on a 7500 Real Time PCR System (Applied Biosystems). The delta-delta C(t) method was used to calculate the fold change.
as §2

lymphocytes [3] = assay: Apoptosis of ECP-processed lymphocytes after overnight incubation; settings: UVA-activated 8-MOP
CD11c+ MoDC = assay: Apoptosis of CD11c+ MoDC (Annexin-V/7-AAD); settings: 24 hr
Experimental: Cultures were incubated with 8-MOP (Uvadex, 20 μg/mL) for 30 min in the dark, and then irradiated with a desktop UVA light box containing a series of 12 linear fluorescent tubes. The tubes emitted UVA light ranging from 320 to 400 nm. The UVA irradiance (power, W/m^2) was measured using a photodiode. Given a measured irradiance and the absorption properties of the various components of the system, it was possible to determine the time (sec) needed to expose the cells to deliver a given dose of UVA radiation (J/cm^2).
(§3) Monoclonal antibodies included HLA-DR, CD80, CD83, CD3, CD86, CD14, CD11c and GILZ. Antibodies were obtained from Beckman-Coulter and eBioscience and were used at their pre-determined optimal dilutions. Apoptosis was assessed using the Annexin-V Apoptosis Detection Kit (eBioscience), with Annexin-V recognizing phosphatidylserine (PS) on the surface of apoptotic cells. 7-AAD substituted for PI as the cell viability dye. Cells displaying an Annexin-V^+/7-AAD^− phenotype were classified as early apoptotic cells, and cells displaying an Annexin-V^+/7-AAD^+ phenotype were classified as late apoptotic cells. Dual membrane and intracytoplasmic staining was performed using the lntraPrep fix and permeabilization kit (Beckman-Coulter). Background staining was established with appropriate isotype and fluorescence minus one controls. Immunofluorescence was analyzed using a FACSCalibur L (BD Biosciences) within 2 hr of fixation with 2% paraformaldehyde. A minimum of 10,000 events were collected for each group.

lymphocytes [4] = assay: Apoptosis of lymphocytes (Annexin-V/7-AAD)
Experimental: as §1, with “Lymphocytes” for “Non-adherent cells (purity: 66.0±4.5% CD3^+) removed during plastic adherence will now be generally referred to as lymphocytes. Lymphocytes”
as §3

platelets [5] = assay: Platelet adhesion to fibrinogen-coated plates in flow after peptide pre-treatment of platelets; settings: platelets (PRP) pre-incubated with peptide 2 mM, 20 minutes
Experimental: (§4) Platelet adhesion experiments were performed using the Vena8 flow chamber described above. Fibrinogen and fibronectin (Sigma) were dissolved in PBS to a final concentration of 200 mcg/ml. Channels of the Vena8 chips were incubated at room temperature in a humidified chamber for 2 hours with the protein solution, autologous plasma, or PBS alone. The channels were washed with 5x the volume RPMI. Platelet-rich-plasma was then perfused through the protein-coated channel at the indicated shear-stress, held constant. For each channel, still images were acquired exactly 90 seconds into the experiment at 4 pre-defined low power fields located along the flow path (fields were centered at 2500, 7500, 12500, and 17500 microns from the start point of infusion).
(§5) Some experiments involved pre-treating platelet-rich-plasma with protein fragments prior to infusion through the channels. Small RGD peptides, containing the amino-acid sequence Arg-Gly-Asp-Ser; DRG peptides, contain the amino-acid sequence Ser-Asp-Gly-Arg; or fragment 400-411 of fibrinogen, containing the amino-acid sequence His-His-Leu-Gly-Gly-Ala-Lys-Gln-Ala-Gly-Asp-Val, were incubated at a concentration of 2 mM with PRP for 20 minutes at room temperature. The PRP was then perfused through the channels as previously described.

[6] = system: monocyte-platelet interactions; assay: Monocyte-platelet interactions in flow (receptor-ligand studies); settings: wall shear stress 0.5 dyne/cm2; relative to P+RGD+ maximum
Experimental: Platelet-coated Vena8 channels were pre-treated with either 40 μg/ml anti-P-selectin (R&D Systems) or 40 μg/ml of an isotype control for 30 minutes at room temperature, then washed with 5× the volume RPMI. Mononuclear cell suspensions were pre-treated with either RGD or DGR peptides at a concentration of 2.5 mM. Video samples lasting 400 frames (26.3 seconds) were recorded 60 seconds after commencement of flow using a lower power field of view spanning 400 microns and centered at 7500 microns from the flow start point.

platelets [7] = assay: Platelet adhesion to fibronectin-coated plates in flow after peptide pre-treatment of platelets; settings: platelets (PRP) pre-incubated with peptide 2 mM, 20 minutes
Experimental: as §4, §5

platelets [8] = assay: Plasma protein influence on platelet adhesion to plates; settings: plates pre-coated with protein; wall shear stress 0.2 to 6.0 dyne/cm^2
Experimental: as §4

monocytes = assay: Static co-culture of monocytes with platelets (DC differentiation); settings: platelets activated with thrombin (2 units) vs not activated; 18 hours static culture
Experimental: When overnight culture was required, cells were centrifuged and resuspended in RPMI-1640 medium (GIBCO), supplemented with 15% AB serum (Gemini Bio-Products) to a final concentration of 5×10^6 cells/ml. Cells were cultured overnight for 18 hours in 12-well polystyrene tissue culture plates (2 ml per well) at 37° C. in 5% CO2.
Monoclonal antibodies for immunophenotyping included CD14 (LPS receptor; monocytes), CD11c (integrin subunit; monocytes and DC), HLA-DR (class II MHC molecule), CD83 (DC marker), CD62p (P-selectin; activated platelets), and CD61 (integrin subunit; platelets). Antibodies were obtained from Beckman Coulter (CD14, CD11c, HLADR, CD83) or Sigma (CD62p, CD61) and used at their pre-determined optimal dilutions. Background staining was established with appropriate isotype controls, and immunofluorescence was analyzed using a FC500 flow cytometer (Beckman Coulter). Two-color membrane staining was performed by adding the pre-determined optimal concentrations of both antibodies directly conjugated to FITC or PE and incubating for 20 min at 4° C., followed by washing to remove unbound antibodies. Combined membrane and cytoplasmic staining was performed following manufacturer's instructions for cell fixation and permeabilization (Intraprep kit, Beckman Coulter). […]

[9] = 24 hr after LPS stimulation, multiplex immunoassay
[10] = 100 ng/mL 8-MOP and 1 J/cm^2 UVA, 24 hr

In the case of 8-methoxypsoralen [8-MOP], the “GILZ up-regulation, fold change relative to untreated MoDC cultured alone” value (GILZ [1]) is reported as 2.78 fold, the “production of IL-10” value (MoDC; [9]) is reported as “increased production of IL-10” and the “production of pro-inflammatory cytokines and chemokines” value (MoDC; [9]) is reported as “decreased production of all pro-inflammatory cytokines and chemokines tested, except TNF-α and IFN-γ”. The “IL-10 to IL-12p70 ratio” value (MoDC) was 38.7, the “IL-10 to IL-12p70 ratio, non-transfected MoDC” value (GILZ [2]) was 8.4 and the “IL-10 to IL-12p70 ratio, transfected with GILZ siRNA” value (GILZ [2]) was 2.9.
In the case of `COc1c2occc2cc2ccc(=O)oc12` [8-MOP, 8-methoxypsoralen], the ECP-processed lymphocytes apoptotic (lymphocytes [3]) is reported as 99%, the “percentage of late apoptotic CD11c+ cells” value (CD11c+ MoDC; 1 J/cm^2, all doses of 8-MOP tested) is reported as “less than 13%” and the “percentage of late apoptotic CD11c+ cells” value (CD11c+ MoDC; 2 J/cm^2, all doses of 8-MOP tested) is reported as “less than 16%”. For the same molecule, the “percentage of early apoptotic CD11c+ cells compared to untreated MoDC” value (CD11c+ MoDC; 2 J/cm^2 and 200 ng/mL) was “increase”, the “percentage of early apoptotic lymphocytes” value (lymphocytes [4]; [10]) was 44.3% and the “percentage of late apoptotic lymphocytes” value (lymphocytes [4]; [10]) was 33.7%. The “time after treatment at which lymphocytes display Annexin-V” value (lymphocytes [4]; 1 J/cm^2 and 100 ng/mL) was 2 h, the “8-MOP concentration needed for an effect on GILZ expression” value (GILZ [1]; 0.5 J/cm^2 UVA) was 200 ng/mL and the “time GILZ remained significantly elevated” value (GILZ [1]; 8-MOP and UVA light (FIG. 10F)) was 72 h. The “GILZ expression increase, combination of 8-MOP and UVA light” value (GILZ [1]; 24 hr, relative to untreated MoDC (FIG. 10E)) was 5.5 fold and the “GILZ expression, 8-MOP alone” value (GILZ [1]; without UVA light, 24 hr (FIG. 10E)) was “did not effect GILZ expression”.
For `C[C@@H]1C[C@H]2[C@@H]3CCC4=CC(=O)C=C[C@]4(C)[C@@]3(F)[C@@H](O)C[C@]2(C)[C@@]1(O)C(=O)CO` [dexamethasone], the “time after treatment at which GILZ is up-regulated” value (GILZ [1]; 100 nM dex) was 2 h, the “GILZ up-regulation, fold change relative to untreated MoDC cultured alone” value (GILZ [1]) was 4.29 fold and the “IL-10 to IL-12p70 ratio” value (MoDC) was 67.7. For the same molecule, the “IL-10 to IL-12p70 ratio, non-transfected MoDC” value (GILZ [2]) was 15.3 and the “IL-10 to IL-12p70 ratio, transfected with GILZ siRNA” value (GILZ [2]) was 3.9.
“Arg-Gly-Asp-Ser (RGDS; printed: Arg-Gly-Asp-Ser) [RGD peptides]” was tested, and the “platelet adhesion to fibrinogen-coated plates” value (platelets [5]) was “not significantly altered”, the “short-duration monocyte-platelet interactions (less than 3 seconds)” value [6] was “did not significantly alter” and the “platelet adhesion to fibronectin-coated plates” value (platelets [7]) was “decreased adhesion significantly”.
In the case of HHLGGAKQAGDV, the “platelet adhesion to fibrinogen-coated plates” value (platelets [5]) is reported as “significantly decreased” and the “platelet adhesion to fibronectin-coated plates” value (platelets [7]) is reported as “had no effect”.
In the case of fibrinogen, the “platelet adhesion to coated plates in flow” value (platelets [8]) is reported as “highest concentrations of platelets adhered”.
thrombin was tested, and the “monocyte differentiation (cells expressing DC markers)” value (monocytes) was “did not cause a discernible difference”.
